Columns and labels:
[1] = system: intracellular calcium in HL60 cells; assay: Calcium mobilization assay (Fura2 probe); format: cell-based; conditions: 10 µM EDK-87/EDK-88, 50 µM chloroquine
Procedure: 1,000 cells of AML cell lines or 50,000 primary cells (both AML and lin-depleted UCB) were treated at the indicated concentration for 18 h, and cultured in 1 mL of MethoCult H4034 Optimum (StemCell Technologies, Vancouver, BC, Canada).
Colonies were screened based on morphology and cellularity at day 7 (cell lines) […]
Calcium mobilization assay
1 x 10^6 cells per mL were loaded for 30’ at 37 °C with the Fura-2-AM probe (Thermo Fisher) at a final 2 µM concentration in pre-warmed calcium- and magnesium-free Hanks BSA solution. Cells were then washed and resuspended in Hanks BSA solution with calcium and magnesium at 3 x 10^5 cells per mL. In parallel, 50µL of drugs in Hanks BSA solution with calcium and magnesium were added to 96-well black wall clear bottom plates and background fluorescence […]
Cells were then added to the plate
(50µL/well) and fluorescence was acquired at indicated timepoints using a Synergy HT Multi-Detection Microplate Reader (BioTek). For the analysis, all values were subtracted their corresponding background fluorescence, and the ratio 340/380 was calculated. Finally, ratios were normalized to vehicle-treated […]
Semi-Quantitative Real Time PCR

AML cell lines [2] = assay: Seahorse oxygen consumption (OCR); format: cell-based; conditions: 5 and 10 µM, 24 h
Procedure: Seahorse studies were performed using the Agilent Seahorse XF Real-Time ATP Rate Assay Kit. […] Cells were washed and suspended in Seahorse medium (Seahorse XF medium with 2 mM glutamine, 10 mM glucose, 2 mM pyruvate) at a concentration of 1.4 × 10^6 (Mono Mac1) and 2.4 × 10^6 (HL60) cells per mL; 50 μL per well were seeded in 96-well Seahorse plates precoated with polylysine, centrifuged, and left to adhere for 20 min at 37 °C before adding prewarmed Seahorse medium to a final volume of 180 μL per well. Basal OCR and ECAR were measured, and the ATP rate assay was performed with the sequential injection of 1.5 μM oligomycin and 0.5 μM rotenone/antimycin A. A detailed description of this protocol was provided by the manufacturers. Mitochondrial ROS was quantified using the MitoSOX Red Mitochondrial Superoxide Indicator (Thermo Fischer Scientific, Waltham, MA, USA), as previously described. The activation of executive caspases was determined using CaspaseGlo® 3/7 Assay (Promega), following the manufacturer’s recommendations. The detection of Annexin-V staining was also described previously.

[3] = Pharmacokinetic study in mice; format: in vivo, CD-1 mice; conditions: 30 mg/kg orally and subcutaneously
Procedure: All ADMET studies were performed in Eurofins Discovery Services (CEREP laboratories, Celle-Lévescault France). The pharmacokinetic studies were performed in Draconis Pharma SL (Barcelona, Spain) in CD-1 mice treated with 30 mg/kg EDK87 or EDK88 via SC or OG. Blood was collected by cardiac puncture at 0.5, 1, 2, 4, or 24 h.

[4] = system: healthy donor blood samples (BC: buffy coat); assay: Combination with ATO, viability by flow cytometry and Bliss synergy; format: cell-based, human; conditions: 48 h
Procedure: (§1) First, 2 × 10^5 (72 h assays in cell lines (Supplementary File S1)), 3 × 10^5 (48 h assays in cell lines) or 7.5 × 10^5 (primary AML, healthy donor buffy coats) cells per mL were cultured in 96-well plates, and all drugs were added at the indicated concentrations. In α-tocopherol experiments, cells were treated with growing concentrations of α-tocopherol and EDK drugs for 48 h. In the NAC and 3MA experiments, treatment was simultaneous with EDK compounds. In glucose deprivation experiments, cells were cultivated with a standard medium (glucose high, 2 g/L), a standard medium without glucose, or a standard medium with galactose (2 g/L) and without glucose. Cell viability was measured via 7-AAD (eBioscience) exclusion and Hoechst33342 (Sigma-Aldrich, St. Louis, MO, USA) positivity staining via flow cytometry, and the cell count was obtained through volume. In the experiments with the primary cells, analyses were performed inside the blast population as detected via blast gates (CD45^low SSC^int). For solid tumor cell lines, viability was analyzed using CellTiter-Glo® Luminescent Cell Viability Assay (Promega).
(§2) Synergy was calculated using SynergyFinder 2.0 with the Bliss reference model.

AML patient samples = assay: as above; format: cell-based, human; conditions: for Effectivity (%Viability reduction): 48 h
Procedure: as §1, §2

AML cell lines [5] = assay: Lysosomal mass with Lysotracker probe; format: cell-based; conditions: 10 µM, 24 h
Procedure: Lysosomal mass was determined using Lysotracker DeepRed (Thermo Fisher, Waltham, MA, USA), and analyzed with cytometry and microscopy, as explained previously. The lysosomal activity assays were performed following the guidance of the study that first introduced the Lysosomal Metriq probe. AML cell lines were lentivirally transduced with the pCW57.1 Lysosomal-METRIQ plasmid (Addgene #135401), and selected with puromycin (2 µg/mL). Cells were treated for 3 consecutive days with 3 µg/mL doxycycline (Sigma Aldrich, St. Louis, MO, USA), incubated with the compounds of interest for 24 h, and analyzed in the flow cytometer. Lysosomal activity was measured as the ratio between red fluorescence (acting as an internal control) and green fluorescence (located in the lysosomes and degraded to different degrees depending on the activity of the lysosomal compartment). For the Galectin 3 puncta assay, AML cell lines were lentivirally transduced with the mAG-Gal3 plasmid (Addgene #62734). Treatments and analysis were performed as described elsewhere. Then, 2 × 10^5 cells per ml were pulsed with dextran-rhodamine (0.25 mg/mL) for 24 h, chased for 2 h, treated with EDK compounds at the indicated concentrations for 48 h, attached to poly-L-lysine (50 μg/mL)-coated chambered coverslips (μ-Slide 8 well, Ibidi), imaged in a Zeiss LSM880 microscope, and analyzed with Fiji software.

[6] = system: panel of 7 AML cell lines; assay: Dose-response viability curves, whole panel; format: cell-based; conditions: mean of the 7 AML cell lines; 48 h
Procedure: as §1

CN1CCC(=C2c3ccccc3-c3c2sc2ccccc32)CC1 [EDK-87]
intracellular calcium mobilization [1]: few changes in calcium release | oxygen consumption (OCR) (AML cell lines [2]): drastic reduction in oxygen consumption | clearance (PK) [3]: high | plasma level [3]: low | volume of distribution [3]: high | Effectivity (%Viability reduction) ([4]; BC#1, single agent 1 µM): 0% | Effectivity (%Viability reduction) ([4]; BC#1, single agent 5 µM): 4% | Effectivity (%Viability reduction) ([4]; BC#1, single agent 10 µM): 19% | Effectivity (%Viability reduction) ([4]; BC#2, single agent 1 µM): 0% | Effectivity (%Viability reduction) ([4]; BC#2, single agent 5 µM): 4% | Effectivity (%Viability reduction) ([4]; BC#2, single agent 10 µM): 14% | synergy with ATO (AML patient samples; AML cell lines and three primary AML samples): highly synergistic | Effectivity (%Viability reduction) (AML patient samples; AML#63, single agent 5 µM): -5% | Effectivity (%Viability reduction) (AML patient samples; AML#63, single agent 10 µM): -19% | Effectivity (%Viability reduction) (AML patient samples; AML#98, single agent 1 µM): -9% | Effectivity (%Viability reduction) (AML patient samples; AML#98, single agent 5 µM): 0% | Effectivity (%Viability reduction) (AML patient samples; AML#98, single agent 10 µM): 8% | Effectivity (%Viability reduction) (AML patient samples; AML#133, single agent 1 µM): -9% | Effectivity (%Viability reduction) (AML patient samples; AML#133, single agent 5 µM): 3% | Effectivity (%Viability reduction) (AML patient samples; AML#133, single agent 10 µM): 19% | lysosomal mass (Lysotracker) (AML cell lines [5]): expansion of the lysosomal mass | EC50 [6]: 7.7 ± 0.7 µM

Source: paper PMC10047683, “A Novel Family of Lysosomotropic Tetracyclic Compounds for Treating Leukemia” (Cancers, 2023)
